According to patent US20090238808A1, “Process for the identification of novel enzyme interacting compounds” (priority 2005, published 2009):

Assays:
[1] = system: phosphorylation sites on kinobeads-captured proteins, K562 cells; assay: Phosphorylation analysis of kinobeads-captured proteins from drug-treated K562 cells; type: cell-based, human; details: of 379 sites on 136 proteins identified
Source text: To explore not only the direct targets of the drugs but also their downstream effects on signaling pathways, aliquots of the iTRAQ-labeled peptide mixtures from kinobeads precipitates were subjected to phosphopeptide enrichment and subsequent identification and quantification by mass spectrometry. […] Indeed, most of these proteins have been implicated in signaling events downstream of ABL (FIG. 10b)^16, 18. For all three drugs together, we found down-regulation of 20 sites on 13 proteins (FIGS. 22 and 23).
Mass Spectrometry and Data analysis.
LC-MS/MS for IMAC samples were performed twice.

[2] = target: BTK (Homo sapiens, UniProt Q06187); assay: Biochemical kinase activity assay (Invitrogen SelectScreen); details: read-out: % inhibition, BTK
[3] = target: EphB4 (Homo sapiens, UniProt P54760); assay: as above; details: read-out: % inhibition, EphB4
[4] = target: FAK/PTK2 (Homo sapiens, UniProt Q05397); assay: as above; details: read-out: % inhibition, FAK
[5] = target: FER (Homo sapiens, UniProt P16591); assay: as above; details: read-out: % inhibition, FER
[6] = target: GCK (Homo sapiens, UniProt Q12851); assay: as above; details: read-out: % inhibition, GCK
[7] = target: KHS1 (Homo sapiens, UniProt Q9Y4K4); assay: as above; details: read-out: % inhibition, KHS1
[8] = target: T1, MER (Homo sapiens, UniProt Q12866); assay: as above; details: read-out: % inhibition, MER
T1 sequence (Q12866 21-999): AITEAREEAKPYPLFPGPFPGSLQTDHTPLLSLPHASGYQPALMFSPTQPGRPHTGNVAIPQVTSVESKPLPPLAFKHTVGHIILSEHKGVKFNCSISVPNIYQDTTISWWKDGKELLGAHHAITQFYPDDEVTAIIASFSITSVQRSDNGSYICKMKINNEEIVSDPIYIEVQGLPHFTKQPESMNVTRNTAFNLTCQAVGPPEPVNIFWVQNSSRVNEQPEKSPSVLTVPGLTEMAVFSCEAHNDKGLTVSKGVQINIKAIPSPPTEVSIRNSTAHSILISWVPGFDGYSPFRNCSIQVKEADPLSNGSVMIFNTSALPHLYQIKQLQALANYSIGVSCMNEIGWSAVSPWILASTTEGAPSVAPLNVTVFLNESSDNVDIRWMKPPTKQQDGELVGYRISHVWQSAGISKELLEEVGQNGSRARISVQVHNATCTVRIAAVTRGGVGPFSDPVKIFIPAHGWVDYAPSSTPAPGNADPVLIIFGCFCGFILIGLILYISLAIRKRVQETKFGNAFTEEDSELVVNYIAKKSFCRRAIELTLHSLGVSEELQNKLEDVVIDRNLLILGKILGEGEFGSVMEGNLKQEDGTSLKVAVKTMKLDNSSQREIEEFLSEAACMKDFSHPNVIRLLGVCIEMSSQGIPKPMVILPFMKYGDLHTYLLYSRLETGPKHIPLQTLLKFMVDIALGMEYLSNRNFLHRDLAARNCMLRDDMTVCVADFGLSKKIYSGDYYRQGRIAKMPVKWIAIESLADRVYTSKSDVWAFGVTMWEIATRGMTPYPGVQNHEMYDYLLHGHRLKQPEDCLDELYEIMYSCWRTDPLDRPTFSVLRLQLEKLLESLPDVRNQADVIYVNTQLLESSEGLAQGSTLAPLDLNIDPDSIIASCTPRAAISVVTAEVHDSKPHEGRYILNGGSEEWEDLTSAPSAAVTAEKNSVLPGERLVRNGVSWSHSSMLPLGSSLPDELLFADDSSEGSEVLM

FER, sequence (P16591 whole entry): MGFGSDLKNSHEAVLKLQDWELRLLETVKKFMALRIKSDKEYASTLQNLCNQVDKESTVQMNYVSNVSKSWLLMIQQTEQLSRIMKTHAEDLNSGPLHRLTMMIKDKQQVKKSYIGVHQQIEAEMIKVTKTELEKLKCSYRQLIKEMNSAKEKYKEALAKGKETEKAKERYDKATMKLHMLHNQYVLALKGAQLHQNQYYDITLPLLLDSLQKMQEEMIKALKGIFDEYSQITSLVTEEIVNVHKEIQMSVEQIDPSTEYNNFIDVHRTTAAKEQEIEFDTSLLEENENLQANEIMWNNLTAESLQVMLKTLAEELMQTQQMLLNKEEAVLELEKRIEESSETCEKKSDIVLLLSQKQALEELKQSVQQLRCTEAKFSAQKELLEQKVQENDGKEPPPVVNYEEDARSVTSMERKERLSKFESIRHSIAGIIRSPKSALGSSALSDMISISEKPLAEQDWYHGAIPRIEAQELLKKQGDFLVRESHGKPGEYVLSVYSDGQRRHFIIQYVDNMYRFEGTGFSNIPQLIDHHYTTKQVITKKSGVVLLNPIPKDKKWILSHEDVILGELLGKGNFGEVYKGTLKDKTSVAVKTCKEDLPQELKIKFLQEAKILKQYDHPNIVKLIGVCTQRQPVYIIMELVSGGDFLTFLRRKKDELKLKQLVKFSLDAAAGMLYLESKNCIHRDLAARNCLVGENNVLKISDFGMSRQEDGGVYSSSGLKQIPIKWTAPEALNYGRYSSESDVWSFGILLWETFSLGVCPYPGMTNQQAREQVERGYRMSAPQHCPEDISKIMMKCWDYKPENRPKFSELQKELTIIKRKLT
EphB4, sequence (P54760 16-987): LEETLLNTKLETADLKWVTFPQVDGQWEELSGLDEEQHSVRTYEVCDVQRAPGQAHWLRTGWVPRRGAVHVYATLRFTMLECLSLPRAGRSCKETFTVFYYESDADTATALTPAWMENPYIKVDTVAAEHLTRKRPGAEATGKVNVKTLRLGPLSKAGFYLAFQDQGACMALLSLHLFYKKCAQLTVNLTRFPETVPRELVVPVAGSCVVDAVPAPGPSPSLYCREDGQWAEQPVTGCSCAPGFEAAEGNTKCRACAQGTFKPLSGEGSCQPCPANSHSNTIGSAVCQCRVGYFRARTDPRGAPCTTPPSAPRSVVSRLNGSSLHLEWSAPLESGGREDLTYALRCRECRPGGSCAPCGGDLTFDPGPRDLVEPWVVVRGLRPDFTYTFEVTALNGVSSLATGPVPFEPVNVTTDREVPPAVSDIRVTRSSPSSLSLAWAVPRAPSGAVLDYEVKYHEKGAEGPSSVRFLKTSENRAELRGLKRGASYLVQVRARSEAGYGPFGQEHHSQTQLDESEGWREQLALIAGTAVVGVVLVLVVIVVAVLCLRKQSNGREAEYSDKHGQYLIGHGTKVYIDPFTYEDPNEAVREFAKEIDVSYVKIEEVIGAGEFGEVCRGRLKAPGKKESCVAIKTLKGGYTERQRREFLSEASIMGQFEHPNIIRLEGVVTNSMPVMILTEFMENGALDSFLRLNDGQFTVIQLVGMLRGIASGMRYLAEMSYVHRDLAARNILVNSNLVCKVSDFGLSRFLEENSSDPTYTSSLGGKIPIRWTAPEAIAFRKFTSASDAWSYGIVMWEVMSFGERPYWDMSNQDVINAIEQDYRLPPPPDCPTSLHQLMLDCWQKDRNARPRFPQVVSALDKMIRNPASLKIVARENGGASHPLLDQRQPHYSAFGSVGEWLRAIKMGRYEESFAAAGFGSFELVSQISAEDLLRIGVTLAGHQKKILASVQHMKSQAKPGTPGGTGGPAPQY
FAK/PTK2, sequence (Q05397 whole entry): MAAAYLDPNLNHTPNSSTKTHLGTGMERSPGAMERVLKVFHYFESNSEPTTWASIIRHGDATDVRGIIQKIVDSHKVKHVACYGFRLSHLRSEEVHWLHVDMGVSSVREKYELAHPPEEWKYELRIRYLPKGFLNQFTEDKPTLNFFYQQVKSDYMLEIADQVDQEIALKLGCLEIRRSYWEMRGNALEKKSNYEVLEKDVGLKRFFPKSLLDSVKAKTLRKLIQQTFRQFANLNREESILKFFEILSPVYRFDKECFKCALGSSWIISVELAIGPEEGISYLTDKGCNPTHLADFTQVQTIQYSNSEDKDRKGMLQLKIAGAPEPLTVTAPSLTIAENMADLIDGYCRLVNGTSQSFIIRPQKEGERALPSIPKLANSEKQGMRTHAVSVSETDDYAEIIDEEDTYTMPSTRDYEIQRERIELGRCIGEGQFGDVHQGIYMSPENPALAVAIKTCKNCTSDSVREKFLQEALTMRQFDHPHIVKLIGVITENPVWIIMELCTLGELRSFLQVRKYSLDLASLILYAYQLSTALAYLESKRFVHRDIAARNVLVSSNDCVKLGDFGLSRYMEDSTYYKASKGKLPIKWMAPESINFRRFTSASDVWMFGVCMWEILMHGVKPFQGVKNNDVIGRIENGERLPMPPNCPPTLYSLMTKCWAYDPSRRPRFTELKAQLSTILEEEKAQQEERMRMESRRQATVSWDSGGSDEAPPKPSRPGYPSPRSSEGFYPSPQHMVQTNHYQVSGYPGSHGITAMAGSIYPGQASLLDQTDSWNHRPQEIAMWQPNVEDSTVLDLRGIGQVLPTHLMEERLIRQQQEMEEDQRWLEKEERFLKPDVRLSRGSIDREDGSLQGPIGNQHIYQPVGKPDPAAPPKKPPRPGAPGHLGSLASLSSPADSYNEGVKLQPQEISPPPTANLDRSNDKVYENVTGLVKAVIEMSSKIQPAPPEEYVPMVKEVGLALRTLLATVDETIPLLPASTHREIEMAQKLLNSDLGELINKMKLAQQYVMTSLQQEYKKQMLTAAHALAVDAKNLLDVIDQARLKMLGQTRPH
KHS1, sequence (Q9Y4K4 whole entry): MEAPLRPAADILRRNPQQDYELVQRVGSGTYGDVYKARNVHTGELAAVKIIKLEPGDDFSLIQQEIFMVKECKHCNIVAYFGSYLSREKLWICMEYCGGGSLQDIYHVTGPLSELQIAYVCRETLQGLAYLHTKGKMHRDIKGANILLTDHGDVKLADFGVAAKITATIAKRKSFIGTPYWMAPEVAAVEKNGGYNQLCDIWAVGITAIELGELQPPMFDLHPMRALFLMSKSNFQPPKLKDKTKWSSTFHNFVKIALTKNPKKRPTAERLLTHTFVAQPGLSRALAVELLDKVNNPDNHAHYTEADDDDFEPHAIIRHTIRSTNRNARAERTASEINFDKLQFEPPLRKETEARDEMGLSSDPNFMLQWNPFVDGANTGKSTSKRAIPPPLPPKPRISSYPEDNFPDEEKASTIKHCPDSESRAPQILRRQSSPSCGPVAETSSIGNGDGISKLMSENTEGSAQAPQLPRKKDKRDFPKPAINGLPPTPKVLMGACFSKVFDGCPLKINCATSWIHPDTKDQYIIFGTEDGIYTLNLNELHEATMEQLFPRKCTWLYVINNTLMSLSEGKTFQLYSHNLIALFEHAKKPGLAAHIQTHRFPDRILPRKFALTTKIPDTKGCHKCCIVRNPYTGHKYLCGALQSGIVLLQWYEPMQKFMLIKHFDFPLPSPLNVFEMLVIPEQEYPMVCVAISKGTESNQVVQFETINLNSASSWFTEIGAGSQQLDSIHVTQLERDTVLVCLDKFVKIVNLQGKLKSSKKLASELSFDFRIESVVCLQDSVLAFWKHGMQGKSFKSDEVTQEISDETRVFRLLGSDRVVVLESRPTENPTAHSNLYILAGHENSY
BTK, sequence (Q06187 whole entry): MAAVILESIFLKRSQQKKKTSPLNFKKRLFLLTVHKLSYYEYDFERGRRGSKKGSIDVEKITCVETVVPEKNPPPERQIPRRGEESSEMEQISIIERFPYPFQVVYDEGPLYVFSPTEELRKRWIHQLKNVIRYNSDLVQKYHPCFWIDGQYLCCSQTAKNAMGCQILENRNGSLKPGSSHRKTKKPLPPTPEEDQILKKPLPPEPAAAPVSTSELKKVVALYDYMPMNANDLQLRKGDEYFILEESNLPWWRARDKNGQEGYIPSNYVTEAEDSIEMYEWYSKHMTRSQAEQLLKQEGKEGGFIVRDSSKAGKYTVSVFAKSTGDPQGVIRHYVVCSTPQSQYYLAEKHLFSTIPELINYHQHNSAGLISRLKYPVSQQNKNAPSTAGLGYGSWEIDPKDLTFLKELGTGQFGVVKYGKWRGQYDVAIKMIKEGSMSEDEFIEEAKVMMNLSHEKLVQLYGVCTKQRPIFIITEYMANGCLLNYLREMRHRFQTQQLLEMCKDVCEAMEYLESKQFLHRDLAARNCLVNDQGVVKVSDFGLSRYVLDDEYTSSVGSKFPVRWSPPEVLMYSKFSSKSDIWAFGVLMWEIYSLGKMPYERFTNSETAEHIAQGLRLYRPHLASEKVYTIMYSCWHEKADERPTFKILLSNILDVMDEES

inhibition at 5 µM [2]: 4%
inhibition at 5 µM [3]: 5%
inhibition at 5 µM [4]: 2%
inhibition at 5 µM [5]: 14%
inhibition at 5 µM [6]: 10%
inhibition at 5 µM [7]: 14%
inhibition at 5 µM [8]: 11%
SMILES: Cc1ccc(NC(=O)c2ccc(CN3CCN(C)CC3)cc2)cc1Nc1nccc(-c2cccnc2)n1 [imatinib]
number of phosphorylation sites with substantial down-regulation [1]: Eight
